In patent US20120225093A1, “Abrogating HIV-1 Infection via Drug-Induced Reactivation of Apoptosis” (UNIVERSITY OF MEDICINE AND DENTISTRY OF NEW JERSEY, priority 2010, published 2012):

Columns and labels:
Format in all cases: cell-based
H9-HIV cells = assay: Apoptosis in H9-HIV cells: annexin V binding, cell diameter, cell survival; details: CPX 30 μM, DEF 200 μM; for increase in annexin-V binding, 7-AAD-negative cell population: by 24 hr
Protocol: Uninfected and uniformly HIV-1 (HTLV-IIIB) infected H9 cells, obtained from the NIH AIDS Research and References Reagent Program, were cultured at 37° C. in a humidified atmosphere (5% CO2, 95% humidity) using RPMI 1640 medium supplemented with 2 mM L-glutamine, […], […] and 20% fetal calf serum.
Viability, diameter, and cell number of PBMCs and H9 cells were measured by computerized image analysis of trypan blue exclusion (VI-CELL™; Beckman Coulter; Fullerton, Calif.). PBMCs were counted with an automated, multi-parameter hematology analyzer (CELL-DYN™; Abbott Laboratories, Abbott Park, Ill.).
(§1) The potential across the mitochondrial membrane of live cells was determined flow-cytometrically with the lipophilic cationic fluorochrome JC-1 (5,5′,6,6′-tetrachloro-1,1′,3,3′-tetraethylbenzimidazolcarbocyanine iodide) immediately after sample harvest (BD™ Mitoscreen Kit, BD Biosciences; San Diego, Calif.). DNA fragmentation was quantified flow-cytometrically, using a TUNEL (terminal deoxynucleotide transferase dUTP nick end-labeling) assay (APO-BRDU™; Phoenix Flow Systems; San Diego, Calif.) and a dual-color assay for annexin V binding and 7-AAD exclusion (Annexin V-PE 7-AAD Apoptosis Detection Kit I™; BD Biosciences Pharmingen, San Jose, Calif.). The apoptotic volume decrease of cells was assessed by the reduction of their diameter (VI-CELL™; Beckman Coulter; Fullerton, Calif.).
First, whether both drugs elicit apoptosis in H9-HIV cells was determined. The cells were exposed to CPX or DEF, and annexin-V binding, cell diameter and cell survival were assayed in a time-dependent manner. By 24 hr, drug treatment elicited a ˜5-fold increase in the percentage of the 7-AAD-negative cell population capable of binding annexin-V to exposed membrane phospholipid phosphatidylserine, with little further increase at 48 hr (FIG. 8A). Both drugs elicited a decrease in mean cell diameter of ˜15% within 24 hr and ˜30% within 48 hr, indicating volume constriction characteristic of apoptosis but not necrosis (FIG. 8B). Concomitantly, cell survival decreased ˜2 fold at 24 hr and ˜5 fold at 48 hr (FIG. 8C).

eIF5A:DHS complex = target: T1, eIF5A:DHS complex (Homo sapiens, UniProt P49366); assay: Co-immunoprecipitation of eIF5A with DHS from 293T cell extracts; details: 293T transfected with FLAG-DHS
T1 construct: expressed in transfected cells; host or cells: 293T cells (FLAG-DHS transfected, eIF5A endogenous)
T1 sequence (P49366 1-369): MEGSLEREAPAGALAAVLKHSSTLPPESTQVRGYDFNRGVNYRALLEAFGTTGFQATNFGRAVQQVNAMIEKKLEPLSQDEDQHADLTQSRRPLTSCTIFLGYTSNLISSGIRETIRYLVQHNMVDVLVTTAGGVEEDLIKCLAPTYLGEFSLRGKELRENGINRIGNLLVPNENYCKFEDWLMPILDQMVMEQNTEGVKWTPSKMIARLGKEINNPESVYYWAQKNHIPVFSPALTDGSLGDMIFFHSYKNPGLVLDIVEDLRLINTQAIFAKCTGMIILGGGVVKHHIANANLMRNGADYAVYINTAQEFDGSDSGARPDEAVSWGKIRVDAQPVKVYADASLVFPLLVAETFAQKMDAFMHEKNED
Protocol: Immunoprecipitation and immunoblotting experiments were carried out as described previously in Hoque et al. Mol Cell Biol 2003, 23:1688-1702.
eIF5A forms tight complexes with its modifying enzymes. Unmodified eIF5A (lysine-50) immunoprecipitates with DHS and deoxyhypusyl-eIF5A interacts with DOHH in vitro. It was discovered that the deoxyhypusyl-eIF5A:DOHH complex formed in vivo can be detected by immunoprecipitation from cell extracts. Taking advantage of this finding, the effects of the drugs on the enzyme-substrate interaction were tested. FLAG-eIF5A was expressed in 293T cells and complexes that immunoprecipitated with anti-FLAG antibody were immunoblotted and probed with antibodies against DOHH. […] As a further control, the DHS inhibitor GC7 was included in this assay. […] As expected, none of the compounds affected the immunoprecipitation of FLAG-eIF5A (FIG. 2D, middle panel) or the expression of endogenous eIF5A (FIG. 2D, bottom panel). Reciprocally, the interaction between endogenous eIF5A and tagged DOHH was inhibited by CPX and DEF (FIG. 2E, right). Similarly, the interaction of endogenous eIF5A with tagged DHS was inhibited by GC7 (FIG. 2E, left) but resistant to CPX and DEF. It is concluded that CPX and DEF, but not P2 or DFOX, target DOHH and inhibit its interaction with its substrate, deoxyhypusylelF5A.

uninfected H9 cells = assay: Mitochondrial membrane potential (JC-1) in uninfected H9 cells; details: 30 μM CPX; 200 μM DEF
Protocol: as §1
Next the effect of the drugs on apoptosis in H9 and H9-HIV cells was examined. Both CPX and DEF increased the collapse of Δψ in a manner that was dose-dependent and accentuated by viral infection (FIGS. 8E and F). […] Thus, exposure to CPX or DEF counteracted the HIV-mediated reduction of Δψ collapse and rendered infected cells more susceptible than uninfected cells to an early step in drug-induced apoptosis.

SMILES | decrease in cell survival (H9-HIV cells; at 24 hr) | decrease in cell survival (H9-HIV cells; at 48 hr) | increase in annexin-V binding, 7-AAD-negative cell population (H9-HIV cells) | decrease in mean cell diameter (H9-HIV cells; within 24 hr) | decrease in mean cell diameter (H9-HIV cells; within 48 hr) | interaction of endogenous eIF5A with tagged DHS (eIF5A:DHS complex) | concentrations needed for enhanced Δψ collapse (uninfected H9 cells)
Cc1cc(C2CCCCC2)n(O)c(=O)c1 [CPX, 6-cyclohexyl-1-hydroxy-4-methylpyridin-2[1H]-one] | ~2 fold | ~5 fold | ~5 fold | ~15% | ~30% | resistant | higher concentrations were required
Cc1c(O)c(=O)ccn1C [DEF, 3-hydroxy-1,2-dimethylpyridin-4(1H)-one] | ~2 fold | ~5 fold | ~5 fold | ~15% | ~30% | resistant | higher concentrations were required
